Bounds are passed on as bounds.

The test system of the assay is AsPC-1/Cas9 cell line (human pancreatic cancer cell line AsPC-1). Put plainly: AsPC-1/Cas9 growth inhibition assay. The class given is cell-based. As to conditions: 5 days culture, CellTiter Glo 2.0, read-out: IC50 (Absolute IC50, 50% inhibition of cell growth). How it is done:
Human pancreatic cancer cell line AsPC-1 (ATCC Number CRL1682) was infected with Edit-R Lentiviral hCMV-Blast-Cas9 Nuclease Particle (Dharmacon, VCAS10124) in the presence of 8 μg/ml of Hexadimethrine bromide (Sigma, H9268), and after 24 hours it was exposed to 10 μg/ml of Blastcidin S (Thermo, A11139) to remove the uninfected cells, thereby establishing an AsPC-1/Cas9 cell line. The cells were maintenance cultured in a 5% CO2 incubator (37° C.) using RPMI-1640 (FujiFilm-Wako Pure Chemical Industries) containing 10% fetal bovine serum (FBS: SIGMA 173012) and penicillin/streptomycin (FujiFilm-Wako Pure Chemical Industries) (hereunder referred to simply as “culture medium”). After adding 25 μL of AsPC-1/Cas9 cell suspension prepared to 3.2×10^4 cells/mL using culture medium into each well of a 384-well plate (Greiner 781091), the cells were cultured overnight in a 5% CO2 incubator (37° C.). On the following day, 25 μL of the test substance diluted with culture medium was added to each well, and culturing was continued for 5 days in a 5% CO2 incubator (37° C.). Next, 25 μL of CellTiter Glo™ 2.0 (Promega) was added to each well, and the plate contents were mixed for 5 minutes using a plate mixer. The plate was stationed for 10 minutes at room temperature while shielded from light, and then the luminous intensity was measured with an ENVISION™ (Perkin-Elmer). The luminescence value of the wells with addition of test substance was determined as a relative value, with 100% as the luminescence value of the wells with cells but without addition of the test substance and 0% as the luminescence value of the wells without cells. A plot of test substance concentration against luminescence value % approximated a 4-parameter logistic curve, and the test substance concentration necessary for 50% inhibition of cell growth (Absolute IC50) was calculated, and is shown in Table 10. In Table 10, the antibodies listed as “CEACAM6_#84.7” are the anti-CEACAM6 antibody of Example 301-1, the antibodies listed as “003” are the anti-folate receptor α antibody of Example 301-2, and the antibodies listed as “345A12” are the anti-mesothelin antibody of Example 301-3.
According the same method as in the AsPC-1/Cas9 growth inhibition assay described in Example 313 above, the test substance concentration necessary for 50% inhibition of cell growth (Absolute IC50) in the ADC described in Example 318 was calculated and is shown in Table 12.
As for `COCCC(CO)(c1ccccc1)c1nc(N=S(C)(C)=O)nc2ccc(-c3cc(C)c(=O)n(C)c3)cc12` (stereo not shown) [Example 22, 5-(2-((Dimethyl(oxo)-16-sulfanylidene)amino)-4-(1-hydroxy-4-methoxy-2-phenylbutan-2-yl)quinazolin-6-yl)-1,3-dimethylpyridin-2(1H)-one], the concentration for half-maximal inhibition (IC50) was 1.6 nM.

As for `Cc1cc(-c2ccc3nc(N=S(C)(C)=O)nc(C(CO)(OC4CCC4)c4ccccc4)c3c2)cn(C)c1=O` (stereo not shown) [Example 13, 5-(4-(1-Cyclobutoxy-2-hydroxy-1-phenylethyl)-2-((dimethyl (oxo)-16-sulfanylidene)amino)quinazolin-6-yl)-1,3-dimethylpyridin-2(1H)-one], the IC50 came out at 0.043 nM.

In the case of `COc1ccc(CC(CO)(c2ccccn2)c2nc(N=S(C)(C)=O)nc3ccc(-c4cc(C)c(=O)n(C)c4)cc23)cc1F` (stereo not shown) [Example 21, 5-(2-((Dimethyl(oxo)-16-sulfanylidene)amino)-4-(1-(3-fluoro-4-methoxyphenyl)-3-hydroxy-2-(pyridin-2-yl)propan-2-yl)quinazolin-6-yl)-1,3-dimethylpyridin-2(1H)-one], the IC50 was 0.061 nM.

For the compound “4-(2-(4-Amino-4-methyl-[1,4′-bipiperidin]-1′-yl)-4-(1-cyclopropoxy-2-hydroxy-1-phenylethyl)quinazolin-6-yl)-6-methyl-1,6-dihydro-7H-pyrrolo[2,3-c]pyridin-7-one [Example 27]”, the half-maximal inhibitory concentration (IC50) was less than 0.015 nM.

As to `Cc1cc(-c2ccc3nc(N)nc(C(CO)(OC4CC4)c4cccs4)c3c2)cn(C)c1=O` (stereo not shown) [Example 15, 5-(2-Amino-4-(1-cyclopropoxy-2-hydroxy-1-(thiophen-2-yl)ethyl)quinazolin-6-yl)-1,3-dimethylpyridin-2(1H)-one], the half-inhibitory concentration (IC50) amounted to 0.039 nM.

With “2-Cyclopropoxy-2-(2-(4-(((2S,5R)-2,5-dimethylpiperazin-1-yl)methyl)piperidin-1-yl)-6-(4-methoxy-1-methyl-6-oxo-1,6-dihydropyridin-3-yl)quinazolin-4-yl)-2-phenylethyl methyl(2-(methylamino)ethyl)carbamate [Example 34]”, the IC50 turned out to be 0.083 nM.

On to `Cc1cc(-c2ccc3nc(N=S(C)(C)=O)nc(C(CO)(Cc4ccccc4)c4ccccc4)c3c2)cn(C)c1=O` (stereo not shown) [Example 23, 5-(2-((Dimethyl(oxo)-16-sulfanylidene)amino)-4-(1-hydroxy-2,3-diphenylpropan-2-yl)quinazolin-6-yl)-1,3-dimethylpyridin-2(1H)-one], for which the IC50 amounted to 0.034 nM.

In the case of `Cc1cc(-c2ccc3nc(NS(C)(=O)=O)nc(C(CO)(CC4CCC4)c4ccccc4)c3c2)cn(C)c1=O` (stereo not shown) [Example 8, N-(4-(1-Cyclobutyl-3-hydroxy-2-phenylpropan-2-yl)-6-(1,5-dimethyl-6-oxo-1,6-dihydropyridin-3-yl)quinazolin-2-yl)methanesulfonamide], the IC50 was found to be 0.043 nM.

With `Cc1cc(-c2ccc3nc(N=S(C)(C)=O)nc(C(CO)(OC(C)C)c4ccccc4)c3c2)cn(C)c1=O` (stereo not shown) [Example 19, 5-(2-((Dimethyl(oxo)-16-sulfanylidene)amino)-4-(2-hydroxy-1-isopropoxy-1-phenylethyl)quinazolin-6-yl)-1,3-dimethylpyridin-2(1H)-one], the half-inhibitory concentration (IC50) was 0.031 nM.

With `Cc1cc(-c2ccc3nc(N)nc(C(CO)(Cc4ccccc4)c4ncccn4)c3c2)cn(C)c1=O` (stereo not shown) [Example 24, 5-(2-Amino-4-(1-hydroxy-3-phenyl-2-(pyrimidin-2-yl)propan-2-yl)quinazolin-6-yl)-1,3-dimethylpyridin-2(1H)-one], the IC50 stood at 0.043 nM.

In the case of `Cc1cc(-c2ccc3nc(NC(=O)N4CC(O)C4)nc(C(CO)(OC4CC4)c4ccccc4)c3c2)cn(C)c1=O` (stereo not shown) [Example 10, N-(4-(1-Cyclopropoxy-2-hydroxy-1-phenylethyl)-6-(1,5-dimethyl-6-oxo-1,6-dihydropyridin-3-yl)quinazolin-2-yl)-3-hydroxyazetidine-1-carboxamide], the IC50 is 0.036 nM.

Take `Cc1cc(-c2ccc3nc(N=S(C)(C)=O)nc(C(CO)(CC(C)C)c4ccccc4)c3c2)cn(C)c1=O` (stereo not shown) [Example 7, 5-(2-((Dimethyl(oxo)-16-sulfanylidene)amino)-4-(1-hydroxy-4-methyl-2-phenylpentan-2-yl)quinazolin-6-yl)-1,3-dimethylpyridin-2(1H)-one]: the 50% inhibitory concentration (IC50) amounted to 0.051 nM.

In the case of `Cc1cc(-c2ccc3nc(NS(C)(=O)=O)nc(C(CO)(CC4CC4)c4ccccn4)c3c2)cn(C)c1=O` (stereo not shown) [Example 5, N-(4-(1-Cyclopropyl-3-hydroxy-2-(pyridin-2-yl)propan-2-yl)-6-(1,5-dimethyl-6-oxo-1,6-dihydropyridin-3-yl)quinazolin-2-yl)methanesulfonamide], the IC50 came to 0.035 nM.

For the compound `CCCC(CO)(c1ccccn1)c1[nH]c(=O)cc2ccc(-c3cc(C)c(=O)n(C)c3)cc12` (stereo not shown) [Example 11, 7-(1,5-Dimethyl-6-oxo-1,6-dihydropyridin-3-yl)-1-(1-hydroxy-2-(pyridin-2-yl)pentan-2-yl)isoquinoline-3(2H)-one], the IC50 came to 0.039 nM.

In the case of `Cc1cc(-c2ccc3cc(N=S(C)(C)=O)nc(C(CO)(OC4CC4)c4ccccc4)c3c2)cn(C)c1=O` (stereo not shown) [Example 9, 5-(1-(1-Cyclopropoxy-2-hydroxy-1-phenylethyl)-3-((dimethyl(oxo)-16-sulfanylidene)amino)isoquinolin-7-yl)-1,3-dimethylpyridin-2(1H)-one], the IC50 turned out to be 0.075 nM.

`Cc1cc(-c2ccc3nc(N=S(C)(C)=O)nc(C(CO)(CC4CCOCC4)c4ccccc4)c3c2)cn(C)c1=O` (stereo not shown) [Example 6]: the 50% inhibitory concentration (IC50) is 0.029 nM.

`CCOC(CO)(c1ccccc1)c1nc(C(N)=O)cc2ccc(-c3cc(C)c(=O)n(C)c3)cc12` (stereo not shown) [Example 16, 7-(1,5-Dimethyl-6-oxo-1,6-dihydropyridin-3-yl)-1-(1-ethoxy-2-hydroxy-1-phenylethyl)isoquinoline-3-carboxamide]: the 50% inhibitory concentration (IC50) came out at 0.035 nM.

As for `CCn1c(=O)nc(C(CO)(OC)c2ccccc2)c2cc(-c3cc(C)c(=O)n(C)c3)ccc21` (racemic) [Example 17, 6-(1,5-Dimethyl-6-oxo-1,6-dihydropyridin-3-yl)-1-ethyl-4-(2-hydroxy-1-methoxy-1-phenylethyl)quinazoline-2(1H)-one], the IC50 is 0.04 nM.

Consider `CCOCCC(CO)(c1ccccn1)c1nc(N)nc2ccc(-c3cc(C)c(=O)n(C)c3)cc12` (stereo not shown) [Example 12, 5-(2-Amino-4-(4-ethoxy-1-hydroxy-2-(pyridin-2-yl)butan-2-yl)quinazolin-6-yl)-1,3-dimethylpyridin-2(1H)-one], for which the IC50 was determined as 0.038 nM.

Consider `Cc1cc(-c2ccc3nc(CNS(C)(=O)=O)nc(C(CO)(OC4CC4)c4ccccc4)c3c2)cn(C)c1=O` (stereo not shown) [Example 18, N-((4-(1-Cyclopropoxy-2-hydroxy-1-phenylethyl)-6-(1,5-dimethyl-6-oxo-1,6-dihydropyridin-3-yl)quinazolin-2-yl)methyl)methanesulfonamide], for which the IC50 was found to be 0.047 nM.

`CN1CCC(Oc2nc(C(CO)(OC3CC3)c3ccccc3)c3cc(-c4cn(C)c(=O)c5c4COC5)ccc3n2)CC1` (stereo not shown) [Example 14, 7-(4-(1-Cyclopropoxy-2-hydroxy-1-phenylethyl)-2-((1-methylpiperidin-4-yl)oxy)quinazolin-6-yl)-5-methyl-3,5-dihydrofuro[3,4-c]pyridine-4(1H)-one]: the half-maximal inhibitory concentration (IC50) is 0.038 nM.

Take `Cc1cc(-c2ccc3nc(N)nc(C(CO)(CC4CC4)c4cccnc4)c3c2)cn(C)c1=O` (stereo not shown) [Example 20, 5-(2-Amino-4-(1-cyclopropyl-3-hydroxy-2-(pyridin-3-yl)propan-2-yl)quinazolin-6-yl)-1,3-dimethylpyridin-2(1H)-one]: the half-maximal inhibitory concentration (IC50) turned out to be 0.035 nM.
